Test results from patent US8067418B2, “Tricyclic angiotensin II agonists” (Vicore Pharma AB, priority 2005, dated 2011).

Key:
AT2 receptor = molecular target: T1, AT2 receptor (Sus scrofa, UniProt A0A4X1W622); settings: read-out: dissociation constant (Kd) at AT2 receptor; Scatchard analysis, porcine myometrial membranes, [L]=0.057 nM
T1 sequence (A0A4X1W622 1-362): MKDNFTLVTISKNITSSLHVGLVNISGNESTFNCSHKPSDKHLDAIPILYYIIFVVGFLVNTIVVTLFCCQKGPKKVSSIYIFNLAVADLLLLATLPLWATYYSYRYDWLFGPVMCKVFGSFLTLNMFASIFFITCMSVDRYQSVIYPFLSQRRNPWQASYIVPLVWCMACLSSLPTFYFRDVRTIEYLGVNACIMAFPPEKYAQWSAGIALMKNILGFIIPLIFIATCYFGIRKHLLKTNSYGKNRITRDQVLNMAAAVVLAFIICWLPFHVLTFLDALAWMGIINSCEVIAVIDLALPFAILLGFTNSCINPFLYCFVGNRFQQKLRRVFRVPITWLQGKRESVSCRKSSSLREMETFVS
Description: Myometrial membranes were prepared from porcine uteri according to the method by Nielsen et al (Clin. Exp. Pharm. Phys. (1997) 24, 309). […] Samples were incubated at 25° C. for 1 h, and binding was terminated by filtration through Whatman GF/B glass-fiber filter sheets using a Brandel cell harvester. The filters were washed with 3×3 mL of Tris-HCl (pH 7.4) and transferred to tubes. The radioactivity was measured using a gamma counter. […] The binding data were best fitted with a one-site fit. All experiments were performed at least in triplicate.

duodenal mucosa = assay: Test C: duodenal mucosal alkaline secretion assay; format: in vivo; settings: co-administration with title compounds of the Examples, anaesthetised rats
Description: Duodenal Mucosal Alkaline Secretion Assay
Compounds were exposed to the duodenal mucosa in barbiturate-anaesthetised rats prepared for in situ titration of duodenal mucosal alkaline secretion, according to the methodology described by Flemström et al in Am. J. Physiol. (1982) 243, G348.

Row | Kd (AT2 receptor) | Compound | effect of co-administration on the mucosal alkalisation stimulated by title compounds (duodenal mucosa)
1 | 0.7 ± 0.1 nM | Asp^1-Arg^2-Val^3-Tyr^4-Ile^5-His^6-Pro^7-Phe^8 [Ang II] | –
2 | – | Cc1cc(Cn2cnc3c2C[C@@H](C(=O)O)N(C(=O)C(c2ccccc2)c2ccccc2)C3)ccc1N(C)C [PD123319] | blocked
